Bounds are passed on as bounds.

Chain of Tyrosine-protein kinase JAK1 (Homo sapiens) (P23458 whole entry): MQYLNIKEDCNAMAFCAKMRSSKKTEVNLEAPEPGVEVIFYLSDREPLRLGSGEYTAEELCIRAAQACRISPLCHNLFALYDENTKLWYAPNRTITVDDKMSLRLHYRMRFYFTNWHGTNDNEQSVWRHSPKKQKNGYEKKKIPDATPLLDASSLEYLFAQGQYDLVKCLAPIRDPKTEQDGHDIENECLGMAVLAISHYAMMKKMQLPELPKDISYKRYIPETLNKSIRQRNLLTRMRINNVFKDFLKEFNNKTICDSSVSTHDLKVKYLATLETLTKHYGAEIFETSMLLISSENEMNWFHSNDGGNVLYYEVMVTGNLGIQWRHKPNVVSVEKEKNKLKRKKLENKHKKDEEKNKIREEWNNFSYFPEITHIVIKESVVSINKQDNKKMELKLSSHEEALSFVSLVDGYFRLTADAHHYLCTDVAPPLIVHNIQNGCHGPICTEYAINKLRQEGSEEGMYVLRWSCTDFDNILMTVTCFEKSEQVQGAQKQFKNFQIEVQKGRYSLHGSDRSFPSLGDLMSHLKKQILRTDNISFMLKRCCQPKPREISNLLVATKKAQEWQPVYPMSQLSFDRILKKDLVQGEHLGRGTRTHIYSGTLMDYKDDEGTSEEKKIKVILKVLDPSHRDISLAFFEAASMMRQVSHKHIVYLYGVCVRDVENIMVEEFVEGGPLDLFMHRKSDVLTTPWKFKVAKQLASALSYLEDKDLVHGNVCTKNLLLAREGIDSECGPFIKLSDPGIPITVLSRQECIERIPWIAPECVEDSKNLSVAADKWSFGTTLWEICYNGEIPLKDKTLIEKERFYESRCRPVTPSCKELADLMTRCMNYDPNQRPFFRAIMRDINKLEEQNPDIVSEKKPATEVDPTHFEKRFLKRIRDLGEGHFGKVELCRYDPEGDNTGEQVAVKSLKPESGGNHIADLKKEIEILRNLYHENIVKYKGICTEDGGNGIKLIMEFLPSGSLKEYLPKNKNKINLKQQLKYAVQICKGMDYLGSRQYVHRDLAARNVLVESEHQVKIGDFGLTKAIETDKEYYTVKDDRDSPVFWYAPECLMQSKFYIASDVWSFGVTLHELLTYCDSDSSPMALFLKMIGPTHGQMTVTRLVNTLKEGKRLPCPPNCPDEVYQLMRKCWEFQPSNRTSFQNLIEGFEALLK
Chain of Misshapen-like kinase 1 (Homo sapiens) (Q8N4C8 whole entry, looked up): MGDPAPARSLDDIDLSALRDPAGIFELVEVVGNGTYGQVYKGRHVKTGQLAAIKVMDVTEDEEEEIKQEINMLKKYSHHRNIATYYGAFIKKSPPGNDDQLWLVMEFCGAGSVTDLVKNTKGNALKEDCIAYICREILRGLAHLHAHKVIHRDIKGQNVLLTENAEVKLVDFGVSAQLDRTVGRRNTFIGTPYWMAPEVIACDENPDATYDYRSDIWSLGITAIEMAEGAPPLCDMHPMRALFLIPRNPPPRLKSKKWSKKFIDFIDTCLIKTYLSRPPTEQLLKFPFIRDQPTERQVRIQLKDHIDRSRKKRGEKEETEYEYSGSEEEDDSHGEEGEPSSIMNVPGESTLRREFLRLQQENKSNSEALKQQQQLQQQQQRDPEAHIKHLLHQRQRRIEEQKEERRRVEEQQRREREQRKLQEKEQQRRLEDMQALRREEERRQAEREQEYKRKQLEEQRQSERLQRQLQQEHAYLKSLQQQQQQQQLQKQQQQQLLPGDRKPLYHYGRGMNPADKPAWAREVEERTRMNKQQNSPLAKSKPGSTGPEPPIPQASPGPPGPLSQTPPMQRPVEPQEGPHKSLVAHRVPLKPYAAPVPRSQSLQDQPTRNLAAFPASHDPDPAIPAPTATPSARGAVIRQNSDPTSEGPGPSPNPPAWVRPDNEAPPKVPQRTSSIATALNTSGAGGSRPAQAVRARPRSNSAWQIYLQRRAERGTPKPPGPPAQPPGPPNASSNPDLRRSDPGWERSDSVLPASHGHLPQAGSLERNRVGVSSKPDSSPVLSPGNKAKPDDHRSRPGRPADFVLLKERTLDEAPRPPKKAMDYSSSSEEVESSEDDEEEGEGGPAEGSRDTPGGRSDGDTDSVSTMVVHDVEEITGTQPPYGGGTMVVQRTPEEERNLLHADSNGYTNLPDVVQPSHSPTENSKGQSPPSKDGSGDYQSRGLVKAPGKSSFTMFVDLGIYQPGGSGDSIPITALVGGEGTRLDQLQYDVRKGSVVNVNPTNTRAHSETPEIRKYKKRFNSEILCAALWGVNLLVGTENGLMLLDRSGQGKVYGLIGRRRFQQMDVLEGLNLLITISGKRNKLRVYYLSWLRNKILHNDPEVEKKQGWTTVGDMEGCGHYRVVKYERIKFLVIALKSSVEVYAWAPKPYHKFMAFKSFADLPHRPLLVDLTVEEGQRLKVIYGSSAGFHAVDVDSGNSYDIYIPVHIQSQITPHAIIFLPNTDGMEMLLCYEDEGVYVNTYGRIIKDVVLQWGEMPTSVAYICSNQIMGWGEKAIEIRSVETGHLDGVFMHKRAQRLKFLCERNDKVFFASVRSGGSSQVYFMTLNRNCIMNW
Chain of Beta-1 adrenergic receptor (Homo sapiens) (P08588 whole entry, looked up): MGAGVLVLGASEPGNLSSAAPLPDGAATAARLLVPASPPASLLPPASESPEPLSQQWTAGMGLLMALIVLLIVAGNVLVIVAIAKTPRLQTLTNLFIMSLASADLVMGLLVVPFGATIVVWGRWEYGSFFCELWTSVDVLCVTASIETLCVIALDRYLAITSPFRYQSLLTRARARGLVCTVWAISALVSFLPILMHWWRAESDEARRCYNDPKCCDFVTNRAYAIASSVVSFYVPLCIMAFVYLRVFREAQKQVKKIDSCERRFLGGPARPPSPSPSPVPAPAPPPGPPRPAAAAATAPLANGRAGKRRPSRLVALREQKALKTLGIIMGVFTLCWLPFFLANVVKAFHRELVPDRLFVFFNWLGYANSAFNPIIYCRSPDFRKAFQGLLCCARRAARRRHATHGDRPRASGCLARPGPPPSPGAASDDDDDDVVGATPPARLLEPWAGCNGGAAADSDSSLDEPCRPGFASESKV
Chain of Histamine H2 receptor (Homo sapiens) (P25021 whole entry): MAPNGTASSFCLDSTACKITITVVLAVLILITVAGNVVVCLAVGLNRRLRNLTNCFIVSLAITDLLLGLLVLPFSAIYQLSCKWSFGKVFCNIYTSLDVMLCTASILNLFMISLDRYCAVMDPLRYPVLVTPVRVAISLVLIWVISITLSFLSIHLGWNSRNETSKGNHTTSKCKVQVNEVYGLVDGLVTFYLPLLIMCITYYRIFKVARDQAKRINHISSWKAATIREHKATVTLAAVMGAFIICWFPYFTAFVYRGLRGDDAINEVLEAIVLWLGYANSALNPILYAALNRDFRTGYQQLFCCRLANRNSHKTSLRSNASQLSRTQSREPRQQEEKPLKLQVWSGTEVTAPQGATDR
Chain of Insulin receptor (Homo sapiens) (P06213 28-758 limits assumed): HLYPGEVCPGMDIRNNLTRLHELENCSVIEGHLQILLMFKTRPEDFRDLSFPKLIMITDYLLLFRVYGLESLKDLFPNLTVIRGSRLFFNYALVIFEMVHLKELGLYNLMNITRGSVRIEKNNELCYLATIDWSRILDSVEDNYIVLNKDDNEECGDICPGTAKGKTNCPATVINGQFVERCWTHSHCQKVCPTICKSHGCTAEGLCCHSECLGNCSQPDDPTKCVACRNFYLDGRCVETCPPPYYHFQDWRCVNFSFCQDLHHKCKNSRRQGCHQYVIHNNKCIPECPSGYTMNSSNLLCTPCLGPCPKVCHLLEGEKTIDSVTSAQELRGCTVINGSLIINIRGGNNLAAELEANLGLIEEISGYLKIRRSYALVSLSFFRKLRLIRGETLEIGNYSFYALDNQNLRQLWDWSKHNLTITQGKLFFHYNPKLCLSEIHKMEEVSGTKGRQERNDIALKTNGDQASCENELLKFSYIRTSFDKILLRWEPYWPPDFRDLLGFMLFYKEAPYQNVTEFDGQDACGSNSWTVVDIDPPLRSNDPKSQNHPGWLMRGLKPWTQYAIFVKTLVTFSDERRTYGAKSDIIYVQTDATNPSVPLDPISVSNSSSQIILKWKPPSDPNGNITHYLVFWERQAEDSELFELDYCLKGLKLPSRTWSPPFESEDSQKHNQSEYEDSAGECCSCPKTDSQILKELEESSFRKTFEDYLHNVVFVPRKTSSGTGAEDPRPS
Chain of Insulin receptor (Homo sapiens) (P06213 763-1382 limits assumed): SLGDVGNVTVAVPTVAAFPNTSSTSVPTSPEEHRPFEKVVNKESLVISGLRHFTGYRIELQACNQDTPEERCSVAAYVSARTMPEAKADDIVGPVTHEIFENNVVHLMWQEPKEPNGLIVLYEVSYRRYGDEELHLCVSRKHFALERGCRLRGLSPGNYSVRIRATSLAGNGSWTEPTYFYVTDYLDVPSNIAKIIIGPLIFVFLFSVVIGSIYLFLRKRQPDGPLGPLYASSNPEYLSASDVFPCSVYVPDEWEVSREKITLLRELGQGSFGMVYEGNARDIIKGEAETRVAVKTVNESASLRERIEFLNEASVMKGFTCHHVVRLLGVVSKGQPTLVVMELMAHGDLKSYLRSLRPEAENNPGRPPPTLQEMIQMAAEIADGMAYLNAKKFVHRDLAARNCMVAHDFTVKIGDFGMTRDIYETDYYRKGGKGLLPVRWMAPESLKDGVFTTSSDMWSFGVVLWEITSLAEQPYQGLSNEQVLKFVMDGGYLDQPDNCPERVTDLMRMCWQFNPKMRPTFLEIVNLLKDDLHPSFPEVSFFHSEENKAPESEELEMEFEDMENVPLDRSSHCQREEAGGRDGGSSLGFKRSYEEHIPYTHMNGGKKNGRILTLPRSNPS

System in one assay: not listed separately
Put plainly: Cytotoxicity against human HS-Sultan cells measured after 8 days. Type of assay: functional, cell-based. As to conditions: 192 h.
`C/C=C/Cn1cc(-c2ccc(C(=O)N3CCOCC3)cc2)c2cc[nH]c2c1=O` returned an IC50 of 20 µM.

System in another assay: not listed separately
Put plainly: Cytotoxicity against human KMS-21BM cells measured after 8 days. Type of assay: functional, cell-based. As to conditions: 192 h.
With `C/C=C/Cn1cc(-c2ccc(C(=O)N3CCOCC3)cc2)c2cc[nH]c2c1=O`, the IC50 came to 14.8 µM.

System in the next assay: not listed separately
Description: Cytotoxicity against human KMM-1 cells measured after 8 days. Type of assay: functional, cell-based. The note with it: KMM-1, 192 h.
In turn, `C/C=C/Cn1cc(-c2ccc(C(=O)N3CCOCC3)cc2)c2cc[nH]c2c1=O` showed an IC50 of 20 µM.

Another assay has as its system K562. Description: Cytotoxicity against human K562 cells measured after 8 days. It counts as functional, cell-based. As to conditions: K562, 192 h.
Consider `C/C=C/Cn1cc(-c2ccc(C(=O)N3CCOCC3)cc2)c2cc[nH]c2c1=O`, for which the IC50 was 20 µM.

The next assay relates to NCI-H2122. Description: Cytotoxicity against human NCI-H2122 cells measured after 8 days. It counts as functional, cell-based. The note with it: NCI-H2122, 192 h.
Compound `C/C=C/Cn1cc(-c2ccc(C(=O)N3CCOCC3)cc2)c2cc[nH]c2c1=O` came in with an IC50 of 20 µM.

For the next assay, the system named is SK-MES-1. Description: Cytotoxicity against human SK-MES-1 cells measured after 8 days. Type of assay: functional, cell-based. The note with it: SK-MES-1, 192 h.
Take `C/C=C/Cn1cc(-c2ccc(C(=O)N3CCOCC3)cc2)c2cc[nH]c2c1=O`: the IC50 came out at 20 µM.

A further assay deals with SU-DHL-16. Description: Cytotoxicity against human SU-DHL-16 cells measured after 8 days. It counts as functional, cell-based. As to conditions: SU-DHL-16, 192 h.
`C/C=C/Cn1cc(-c2ccc(C(=O)N3CCOCC3)cc2)c2cc[nH]c2c1=O` gave an IC50 of 10.3 µM.

Another assay deals with U-698-M. Description: Cytotoxicity against human U-698-M cells measured after 8 days. Type of assay: functional, cell-based. The note with it: 192 h.
Take `C/C=C/Cn1cc(-c2ccc(C(=O)N3CCOCC3)cc2)c2cc[nH]c2c1=O`: the IC50 came out at 20 µM.

The next assay relates to AU565. Description: Cytotoxicity against human AU565 cells measured after 8 days. It counts as functional, cell-based. As to conditions: AU565, 192 h.
With `C/C=C/Cn1cc(-c2ccc(C(=O)N3CCOCC3)cc2)c2cc[nH]c2c1=O`, half-maximal inhibition (IC50) required 20 µM.

A further assay has as its system DU-145. Put plainly: Cytotoxicity against human DU-145 cells measured after 8 days. Type of assay: functional, cell-based. The note with it: DU-145, 192 h.
In turn, `C/C=C/Cn1cc(-c2ccc(C(=O)N3CCOCC3)cc2)c2cc[nH]c2c1=O` came in with an IC50 of 20 µM.

The next assay deals with LNCaP. Put plainly: Cytotoxicity against human LNCaP/Ner cells measured after 8 days. It counts as functional, cell-based. As to conditions: 192 h.
As for `C/C=C/Cn1cc(-c2ccc(C(=O)N3CCOCC3)cc2)c2cc[nH]c2c1=O`, inhibition was half-maximal at 16.7 µM (IC50).

The next assay concerns LS180. Put plainly: Cytotoxicity against human LS180 cells measured after 8 days. It counts as functional, cell-based. As to conditions: LS180, 192 h.
For `C/C=C/Cn1cc(-c2ccc(C(=O)N3CCOCC3)cc2)c2cc[nH]c2c1=O`, the IC50 turned out to be 20 µM.

System in another assay: not listed separately
Description: Cytotoxicity against human HMY-1 cells measured after 8 days. It counts as functional, cell-based. The note with it: HMY-1, 192 h.
For the compound `C/C=C/Cn1cc(-c2ccc(C(=O)N3CCOCC3)cc2)c2cc[nH]c2c1=O`, the IC50 was determined as 20 µM.

The next assay relates to Calu-3. Put plainly: Cytotoxicity against human Calu-3 cells measured after 8 days. As to conditions: Calu-3, 192 h. Type of assay: functional, cell-based.
`C/C=C/Cn1cc(-c2ccc(C(=O)N3CCOCC3)cc2)c2cc[nH]c2c1=O` displayed an IC50 of 20 µM.

System in a further assay: not listed separately
Put plainly: Cytotoxicity against human HCC1171 cells measured after 8 days. Type of assay: functional, cell-based. As to conditions: HCC1171, 192 h.
`C/C=C/Cn1cc(-c2ccc(C(=O)N3CCOCC3)cc2)c2cc[nH]c2c1=O`: the IC50 amounted to 20 µM.

Another assay concerns the target T1, ATPase family AAA domain-containing protein 2B (Homo sapiens, UniProt Q9ULI0).
T1 sequence (Q9ULI0 whole entry): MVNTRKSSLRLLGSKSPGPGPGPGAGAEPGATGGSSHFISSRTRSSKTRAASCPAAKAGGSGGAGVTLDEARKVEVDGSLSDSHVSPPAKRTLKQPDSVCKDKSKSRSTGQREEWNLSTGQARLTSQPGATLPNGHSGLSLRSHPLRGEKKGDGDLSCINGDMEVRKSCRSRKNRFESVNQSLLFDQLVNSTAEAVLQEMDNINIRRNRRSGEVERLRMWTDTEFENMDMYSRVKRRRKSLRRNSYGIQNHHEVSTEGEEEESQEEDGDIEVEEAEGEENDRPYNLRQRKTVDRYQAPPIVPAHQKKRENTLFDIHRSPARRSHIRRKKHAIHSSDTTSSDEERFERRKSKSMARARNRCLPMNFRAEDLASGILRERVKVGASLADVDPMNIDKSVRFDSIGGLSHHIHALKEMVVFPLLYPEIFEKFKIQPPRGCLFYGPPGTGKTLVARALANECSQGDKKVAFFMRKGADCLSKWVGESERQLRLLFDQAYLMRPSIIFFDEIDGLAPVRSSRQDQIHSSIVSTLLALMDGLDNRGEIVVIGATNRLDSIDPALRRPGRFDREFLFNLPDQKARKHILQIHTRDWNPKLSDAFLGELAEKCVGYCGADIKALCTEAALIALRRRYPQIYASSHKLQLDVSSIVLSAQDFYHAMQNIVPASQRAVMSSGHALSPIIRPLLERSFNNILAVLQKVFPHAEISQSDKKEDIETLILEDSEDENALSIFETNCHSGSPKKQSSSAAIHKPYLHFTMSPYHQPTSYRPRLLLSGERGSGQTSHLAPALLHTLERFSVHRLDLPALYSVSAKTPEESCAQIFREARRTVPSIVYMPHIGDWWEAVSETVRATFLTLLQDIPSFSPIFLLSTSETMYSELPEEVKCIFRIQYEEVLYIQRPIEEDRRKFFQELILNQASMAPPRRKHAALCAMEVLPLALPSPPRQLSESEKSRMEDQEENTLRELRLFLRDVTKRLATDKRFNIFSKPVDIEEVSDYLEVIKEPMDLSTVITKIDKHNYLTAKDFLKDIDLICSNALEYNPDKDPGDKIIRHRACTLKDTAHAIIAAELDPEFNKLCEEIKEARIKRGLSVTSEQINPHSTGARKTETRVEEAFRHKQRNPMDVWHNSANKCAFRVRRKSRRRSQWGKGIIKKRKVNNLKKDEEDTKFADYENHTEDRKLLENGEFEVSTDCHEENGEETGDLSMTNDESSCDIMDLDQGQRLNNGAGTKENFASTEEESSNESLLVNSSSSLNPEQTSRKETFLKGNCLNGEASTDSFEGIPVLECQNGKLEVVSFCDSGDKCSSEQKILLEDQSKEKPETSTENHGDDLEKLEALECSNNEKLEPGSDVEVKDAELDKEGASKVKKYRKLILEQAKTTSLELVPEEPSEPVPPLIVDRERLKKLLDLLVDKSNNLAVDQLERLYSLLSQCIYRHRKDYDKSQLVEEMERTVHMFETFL
Put plainly: Binding affinity to human partial length ATAD2B (Q955 to R1082 residues) expressed in bacterial expression system by BROMOscan assay.
Conditions: not given
Take `C/C=C/Cn1cc(-c2ccc(C(=O)N3CCOCC3)cc2)c2cc[nH]c2c1=O`: the Kd was greater than 10 µM.
`C/C=C/Cn1cc(-c2cc(OC)c(C(C)(C)O)cc2OC)c2cc(C)[nH]c2c1=O` gave a Kd greater than 10 µM.

Another assay has as its target Insulin receptor (Homo sapiens) (UniProt P06213). Description: Inhibition of InsR (unknown origin) at 1 uM relative to control.
Conditions: not given
In the case of `C/C=C/Cn1cc(-c2ccc(C(=O)N3CCOCC3)cc2)c2cc[nH]c2c1=O`, the inhibition is 1.1%.

The next assay concerns the target Tyrosine-protein kinase JAK1 (Homo sapiens) (UniProt P23458). Description: Inhibition of JAK1 (unknown origin) at 1 uM relative to control.
Conditions: not given
For the compound `C/C=C/Cn1cc(-c2ccc(C(=O)N3CCOCC3)cc2)c2cc[nH]c2c1=O`, the inhibition is -3.9%.

Another assay has as its target Misshapen-like kinase 1 (Homo sapiens) (UniProt Q8N4C8). Description: Inhibition of Mink1 (unknown origin) at 1 uM relative to control.
Conditions: not given
Take `C/C=C/Cn1cc(-c2ccc(C(=O)N3CCOCC3)cc2)c2cc[nH]c2c1=O`: the inhibition came to 1.5%.

The next assay has as its target Beta-1 adrenergic receptor (Homo sapiens) (UniProt P08588). Put plainly: Displacement of [3H](-)CGP 12177 from human beta1 adrenoceptor at 10 uM after 60 mins by scintillation counting analysis relative to control.
Conditions: not given
Compound `C/C=C/Cn1cc(-c2ccc(C(=O)N3CCOCC3)cc2)c2cc[nH]c2c1=O` showed an Activity of 4%.

A further assay concerns the target Histamine H2 receptor (Homo sapiens) (UniProt P25021). Put plainly: Displacement of [125I]APT from human recombinant histamine H2 receptor at 10 uM after 120 mins by scintillation counting analysis relative to control.
Conditions: not given
On the technique in general: Loss of bound radioactivity is the signal in a displacement assay; it reports binding, not function.
As for `C/C=C/Cn1cc(-c2ccc(C(=O)N3CCOCC3)cc2)c2cc[nH]c2c1=O`, the Activity worked out at 6%.

What is called IC50 is the concentration that gives 50% inhibition. Higher therefore signals lower potency. Broadly, the Kd is the concentration at which binding is half-saturated. Low values mean a tighter complex, high ones a looser complex. For orientation: inhibition means the drop in the measured response relative to a control, in per cent.
